Consider two molecules from US11446287B2, “Compounds and methods for EP300 or CBP modulation and indications therefor” (Opna Immuno-Oncology SA, priority 2019, dated 2022).

The target of this assay is T1, Recombinant human CBP containing the bromodomain (CBP-BD (1043-1159)) (Homo sapiens, UniProt Q92793).
T1 construct: Recombinant human CBP bromodomain (CBP-BD (1043-1159)); made in house; host or cells: E. coli BL21-CodonPlus (DE3), modified pET vector
The assay can be described thus: CBP Alphascreen binding assay. The settings on record: read-out: CREBBP (CBP) IC50. In outline: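 Buffer: 50 mM HEPES pH 7.5, 50 mM NaCl, 0.01% BSA, 0.01% Triton X-100, 2 mM DTT. The signal was normalised to plate controls and fitted with a four-parameter curve to give IC50.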

T1 sequence (Q92793 1081-1197): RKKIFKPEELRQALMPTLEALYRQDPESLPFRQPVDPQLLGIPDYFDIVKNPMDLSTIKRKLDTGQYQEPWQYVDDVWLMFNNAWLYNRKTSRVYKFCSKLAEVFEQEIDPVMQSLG

Regarding `Cc1noc(C)c1-c1cnc2c(c1)c(-c1ccc(C(=O)O)cc1OC(F)(F)F)cn2-c1ccc(C(C)(C)O)cc1` [P-0314, 4-(5-(3,5-dimethylisoxazol-4-yl)-1-(4-(2-hydroxypropan-2-yl)phenyl)-1H-pyrrolo[2,3-b]pyridin-3-yl)-3-(trifluoromethoxy)benzoic acid], the half-maximal inhibitory concentration (IC50) lay in the range of 0.1 to 1000 nM.

In the case of `Cc1noc(C)c1-c1cnc2c(c1)c(-c1ccc(C(=O)O)cc1OC(F)(F)F)cn2-c1ccsc1` [P-0315, 4-(5-(3,5-dimethylisoxazol-4-yl)-1-(thiophen-3-yl)-1H-pyrrolo[2,3-b]pyridin-3-yl)-3-(trifluoromethoxy)benzoic acid], the IC50 fell in the range of 0.1 to 1000 nM.
